According to ChEMBL document CHEMBL1144274, “Novel spiroanellated 1,2,4-trioxanes with high in vitro antimalarial activities” (Bioorg Med Chem Lett, 2005):
In brackets after ≈: the same amount, converted by molar mass.

Assays:
[1] = In vitro cytotoxicity against mammalian L-6 cell line; assay type: functional, cell-based; conditions: L6
Plasmodium falciparum [2] = experiment: In vitro inhibition of Plasmodium falciparum K1 (0.0013 ug/mL); assay type: functional, organism-based
Plasmodium falciparum [3] = experiment: In vitro inhibition of Plasmodium falciparum K1 (0.2253 ug/mL); assay type: functional, organism-based
Plasmodium falciparum [4] = experiment: In vitro inhibition of Plasmodium falciparum K1 (0.00065 ug/mL); assay type: functional, organism-based
Plasmodium falciparum [5] = experiment: In vitro inhibition of Plasmodium falciparum K1 (0.0024 ug/mL); assay type: functional, organism-based
Plasmodium falciparum [6] = experiment: In vitro inhibition of Plasmodium falciparum K1 (0.00054 ug/mL); assay type: functional, organism-based
Plasmodium falciparum [7] = experiment: In vitro inhibition of Plasmodium falciparum K1 (0.0088 ug/mL); assay type: functional, organism-based
Plasmodium falciparum [8] = experiment: In vitro inhibition of Plasmodium falciparum K1 (0.0008 ug/mL); assay type: functional, organism-based

Q: For C=C(C)C1OO[C@]2(O[C@H]1C)[C@H]1CC3C[C@@H](C1)C[C@H]2C3 (stereo partly drawn), which IC50 [1] is on record?
A: 1.7 µg/mL (≈ 6.43 µM)

Q: And the IC50 (Plasmodium falciparum [2])?
A: 4.9 nM

Q: Which IC50 (Plasmodium falciparum [3]) does the source give for C=C(C)[C@@H]1OOC(C)(C)O[C@H]1C here?
A: 1310 nM

Q: For C=C(C)[C@@H]1OOC2(CCCCC2)O[C@H]1C, which IC50 [1] is on record?
A: 0.46 µg/mL (≈ 2.17 µM)

Q: What about the IC50 (Plasmodium falciparum [4]) of the same compound?
A: 3.1 nM

Q: Which IC50 [1] does the source give for C=C(C)[C@@H]1OOC2(CCCC2)O[C@H]1C(C)C here?
A: 0.82 µg/mL (≈ 3.62 µM)

Q: And the IC50 (Plasmodium falciparum [5])?
A: 10.6 nM

Q: For C=C(C)C1OO[C@]2(O[C@H]1C1CC1)[C@H]1CC3C[C@@H](C1)C[C@H]2C3 (stereo partly drawn), which IC50 [1] is on record?
A: 0.74 µg/mL (≈ 2.55 µM)

Q: What about the IC50 (Plasmodium falciparum [6]) of the same compound?
A: 1.9 nM

Q: Which results are given for C=C(C)[C@@H]1OOC2(CCCC2)O[C@H]1C(C)(C)C?
A: IC50 [1]: 3.7 µg/mL (≈ 15.4 µM); IC50 (Plasmodium falciparum [7]): 36.6 nM

Q: Which IC50 (Plasmodium falciparum [8]) does the source give for C[C@@H]1CC[C@H]2[C@@H](C)C(=O)O[C@@H]3O[C@@]4(C)CC[C@@H]1[C@]32OO4 [ARTEMISININ] here?
A: 2.8 nM

Q: For O[C@H](c1cc(C(F)(F)F)nc2c(C(F)(F)F)cccc12)[C@@H]1CCCCN1 [MEFLOQUINE], which IC50 [1] is on record?
A: 1.9 µg/mL (≈ 5.02 µM)
